Tests used:
[1] = tested on: grass; experiment: Ensilage of grass in preserving jars, Example 4; settings: laboratory silos
Protocol: The jars were stored in a climatic test chamber at 20° C. For the control without ensiling agent, water was added in a volume equivalent to 15 weight % FLP with and without bacteria. The additive of 40% weight FLP was added in an amount corresponding to 6 liters/tonne of grass. The FLP consisted of ¾ lactose and salts and ¼ organic acids (the ratio of propionic acid to lactic acid was 1:3). The agent with bacteria contained 8 log10 colony forming units of lactic acid bacteria per ml FLP and <8 log10 cfu propionic acid bacteria per ml FLP.

[2] = tested on: undesirable microorganisms; settings: typically 0.1-0.5 g/l; potassium sorbate and/or sodium benzoate

| Compound | silage effluent, formic acid compared with addition of FLP [1] | risk of contamination by undesirable microorganisms during fermentation [2] |
| --- | --- | --- |
| O=CO [formic acid] | More silage effluent |  |
| O=C([O-])c1ccccc1.[Na+] [sodium benzoate] |  | reduced the risk of contamination |
| C/C=C/C=C/C(=O)[O-].[K+] [potassium sorbate] |  | reduced the risk of contamination |
